Among the data in PubChem BioAssay AID2351 (The Scripps Research Institute Molecular Screening Center, 2010) are IC50 values, retold here.

Active and inactive are the calls of the source. The rule behind the calls is not given here. A value given as a limit tells only on which side of the number the result lay.

The assay addresses Sphingosine 1-phosphate receptor 1 (Homo sapiens) (UniProt P21453). Kind of assay: PubChem AID 2351. The conditions noted are these: S1P1-expressing cells, fluorescence antagonist assay.

Sequence of Sphingosine 1-phosphate receptor 1 (Homo sapiens) (P21453 whole entry, looked up): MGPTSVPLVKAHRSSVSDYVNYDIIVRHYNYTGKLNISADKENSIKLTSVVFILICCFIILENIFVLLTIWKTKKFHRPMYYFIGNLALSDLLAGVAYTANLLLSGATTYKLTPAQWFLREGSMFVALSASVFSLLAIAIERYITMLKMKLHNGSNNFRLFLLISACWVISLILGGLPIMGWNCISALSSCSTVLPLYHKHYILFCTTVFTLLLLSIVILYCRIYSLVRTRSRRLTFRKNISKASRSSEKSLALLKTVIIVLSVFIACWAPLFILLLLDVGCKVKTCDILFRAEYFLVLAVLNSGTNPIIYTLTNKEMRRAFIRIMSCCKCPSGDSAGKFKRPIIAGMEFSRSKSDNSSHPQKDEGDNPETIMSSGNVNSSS

For `Cc1cccc(C)c1NC(=O)c1ccc(-c2cc(Cl)ccc2Cl)o1`, the IC50 (usually the point on the concentration scale where inhibition reaches its midpoint) was > 25 µM (inactive).
